From patent US10376553B2, “Pharmaceutical composition for preventing and treating chronic obstructive lung disease containing, as active ingredient, Magnoliae flos extract, fraction, or active fraction thereof” (KOREA RESEARCH INSTITUTE OF BIOSCIENCE AND BIOTECHNOLOGY, priority 2015, dated 2019)

What was measured:
[1] = system: MUC5AC protein; experiment: Inhibition of MUC5AC protein production (immunoassay) by the compounds; assay type: cell-based, human; settings: for Inhibition rate (%): MUC5AC secretion, TNF-α 20 ng/mL; for production of MUC5AC (in words): vs TNF-α treated group = 100%
Procedure: For immunoassay of the resulting MUC5AC, the supernatant (50 uL) recovered was dispensed on to a 96-well plate and dried in a thermostat set at 50° C. It was washed with PBS supplemented with 1% BSA and reacted with an MUC5AC antibody (abcam, USA) at room temperature for 1 hour. A secondary antibody was dispensed thereto for reaction for 1 hour. It was washed again and then reacted with a 3,3′,5,5′-tetramethylbenzidine peroxide solution for 20 minutes. After the reaction was stopped with a sulfuric acid solution, the degree of color development was measured at 450 nm.
As a result, as shown in the following Table 6, the amount of MUCSAC secretion increased in the group treated with TNF-α.

[2] = system: inflammatory cells in the bronchoalveolar lavage fluid; experiment: Inflammatory cells in bronchoalveolar lavage fluid of the COPD mouse model (cigarette smoke + LPS); assay type: in vivo, C57BL/6N mice; settings: BALF, vs COPD-induced group
Procedure: Six-week-old male SPF (specific pathogen-free) C57BL/6N mice (22 to 24 g) were supplied by Koatech (Korea). These animals were fed with a sufficient amount of solid feed (no antibiotics, Samyang Feed Co.) and water until the day of the experiment. They were allowed to adapt for 1 week in a light-dark cycle environment at a temperature of 22±2° C. and a humidity of 55±15%, and then subjected to the experiment.
The animal model was exposed to cigarette smoke to induce chronic obstructive pulmonary disease. 3R4F Kentuchy Reference Cigarettes as standard cigarettes for use to generate cigarette smoke were supplied by University of California (USA). The standard cigarettes contain 9.4 mg of tar, 11 mg of total particle matter (TPM), and 12 mg of carbon monoxide per 1 cigarette. The standard cigarettes were used after harmonization for 48 hours to 72 hours at a temperature of 22±1° C. and a humidity of 60±2%. Further, Cigarette Smoke Generator manufactured by Korea BioLink (Korea) was used for exposure to cigarette smoke. Cigarette smoke was inhaled for 1 hour (8 pcs/hour) for 7 days from 1 hour after oral administration of a sample. 10 μg of LPS (lipopolysaccharide) in PBS 50 μL was injected intranasally to each mouse on the 4th day of the experiment after the mouse was anesthetized with zoletyl 1 hour before the exposure to cigarette smoke. The smoking condition was 8 puffs per 1 standard cigarette (volume: 45 mL, duration: 2 seconds, and interval: 1 time/min).
The active fraction of Magnoliae flos (15, 30 mg/kg) and roflumilast (10 mg/kg) as therapeutic substances were dissolved in 0.5% sodium carboxymethyl cellulose and were orally administered 1 hour before the exposure to cigarette smoke.
The experimental groups were divided into (i) normal control (NC) group; (ii) cigarette smoke+LPS exposure group (COPD); (iii) experimental group administered with roflumilast (ROF) (10 mg/kg, p.o) 1 hour before the exposure to cigarette smoke+LPS; and (iv) experimental group administered with the active fraction of Magnoliae flos (15, 30 mg/kg, p.o; Magnoliae flos 15 and Magnoliae flos 30) 1 hour before the exposure to cigarette smoke+LPS. […] Then, they were administered in the same manner as above.
The bronchial alveolar lavage fluid was separated from the animal model treated with the active fraction and the compounds of Magnoliae flos in <Test Example 6-2> above in the following manner, and the number of inflammatory cells was measured.
Specifically, a mouse sonde was inserted into the bronchial tube, a 1 mL syringe containing 0.7 mL of DPBS (Dulbecco's Phosphate-Buffered Saline) was connected thereto, and DPBS was injected into the lung. The injected DPBS was recovered, and this procedure was repeated twice. The bronchoalveolar lavage fluid separated by DPBS was centrifuged at 1,500 rpm for 15 minutes to make a cell pellet. The supernatant was stored frozen at −70° C. for cytokine analysis. Each cell obtained was suspended in DPBS, attached to a slide glass using a cytospin centrifuge, and Diff-Quik stained. The number of inflammatory cells in each sample was counted through microscopic examination, and the inhibition rate was calculated according to the following Equation 3.
Inhibition rate=(Value of COPD-induced group−value of target substance administered group)×100/(Value of COPD-induced group) [Equation 3]

[3] = system: reactive oxygen species; experiment: Production of active oxygen species in BALF of the COPD model (DCF-DA); assay type: in vivo, C57BL/6N mice; settings: for Active oxygen inhibition rate (%) / production of active oxygen species (in words): vs COPD-induced group; for production of active oxygen species (in words): 15 and 30 mg/kg
Procedure: Production of active oxygen species in the bronchoalveolar lavage fluid obtained in <Test Example 6-3> above was confirmed by the following method.
Specifically, the separated BALF (200 μL) was treated to the final concentration of 20 μM of DCF-DA (dihydrodichlorofluorescein diacetate, Sigma-Aldrich, USA), followed by culturing for 30 minutes and measurement using Fluorescence (Molecular Device, USA). The inhibition rate was calculated by Equation 3 above.

[4] = system: IL-6; experiment: IL-6 level in BALF of the COPD model (ELISA); assay type: in vivo, C57BL/6N mice; settings: vs COPD-induced group; for IL-6 inhibition rate (%): BALF
Procedure: (§1) Cytokines were measured in the cell supernatant obtained in <Test Example 6-3> above by the following method. Specifically, the levels of IL-6 (R & D System, USA) and TNF-α (BD Bioscience, USA) in the separated BALF were measured by enzyme-linked immuno-sorbent assay (ELISA). Each cytokine analysis was carried out according to the manufacturer's test method.

[5] = system: TNF-α; experiment: TNF-α level in BALF of the COPD model (ELISA); assay type: in vivo, C57BL/6N mice; settings: vs COPD-induced group; for TNF-α inhibition rate (%): BALF
Procedure: as §1

[6] = system: H292 cells; experiment: Cytotoxicity (CCK-8 cell viability) of the compounds of Magnoliae flos in H292 cells; assay type: cell-based, human; settings: 24 h, vs 0.2% DMSO control = 100%
Procedure: Then, 10 μl of the CCK-8 solution (Dojindo Laboratories, Japan) was mixed with 90 μl of the medium, and 100 μl thereof was added per well. After incubation for a minimum of 30 minutes to a maximum of 4 hours, the absorbance was measured at 570 nm. The cell viability was calculated according to the following Equation 2 with a negative control group treated with 0.2% DMSO as a reference of 100%.
Cell viability=(Compound treated OD 570 nm value)×100/(Negative control group OD 570 nm value) [Equation 2]

[7] = system: MUC5AC promoters; experiment: MUC5AC promoter luciferase reporter assay in H292 cells; assay type: cell-based, human; settings: Table 7, MUC5AC promoter luciferase reporter, 10 μM, TNF-α 20 ng/mL
From the text: The degree of activation of luciferase was confirmed using a One-glow Luciferase Assay System (Promega).
As a result, as shown in the following Table 7, the activity of the MUC5AC promoters increased in the group treated with TNF-α.

Structure (SMILES)	Inhibition rate (%) ([1]; 2.5 μM)	Inhibition rate (%) ([1]; 5 μM)	Inhibition rate (%) ([1]; 10 μM)	Inhibition rate of inflammatory cell infiltration (%) Macrophage ([2]; 15 mg/kg p.o.)	Inhibition rate of inflammatory cell infiltration (%) Neutrophil ([2]; 15 mg/kg p.o.)	Inhibition rate of inflammatory cell infiltration (%) Total inflammatory cells ([2]; 15 mg/kg p.o.)	Inhibition rate of inflammatory cell infiltration (%) Macrophage ([2]; 30 mg/kg p.o.)	Inhibition rate of inflammatory cell infiltration (%) Neutrophil ([2]; 30 mg/kg p.o.)	Inhibition rate of inflammatory cell infiltration (%) Total inflammatory cells ([2]; 30 mg/kg p.o.)	increase in inflammatory cells (in words) [2]	rate of inhibiting reactive oxygen compared with ROF drug control group (in words) ([3]; 15 mg/kg)	Active oxygen inhibition rate (%) ([3]; 15 mg/kg p.o.)	Active oxygen inhibition rate (%) ([3]; 30 mg/kg p.o.)	production of active oxygen species (in words) [3]	IL-6 inhibition rate (%) ([4]; 15 mg/kg p.o.)	IL-6 inhibition rate (%) ([4]; 30 mg/kg p.o.)	TNF-α inhibition rate (%) ([5]; 15 mg/kg p.o.)	TNF-α inhibition rate (%) ([5]; 30 mg/kg p.o.)	IL-6 in the bronchoalveolar lavage fluid (in words) [4]	TNF-α secretion in the bronchoalveolar lavage fluid (in words) [5]	other results
COc1ccc([C@@H]2OC[C@H]3[C@@H]2CO[C@@H]3c2ccc3c(c2)OCO3)cc1OC [Compound S7, fargesin]	0.79%	1.69%	11.05%	37.1 ± 2.8%	51.7 ± 6.3%	44.1 ± 3.7%	34.8 ± 6.1%	38.2 ± 5.4%	34.1 ± 6.1%	effectively inhibited	higher rates of inhibiting reactive oxygen than that of the drug control group treated with ROF	47.5 ± 5.2%	39.6 ± 6.9%	higher inhibition rate in the low dose groups	50.8 ± 17.0%	31.4 ± 9.6%	49.1 ± 2.6%	34.1 ± 7.1%			rate of inhibiting reactive oxygen compared with ROF drug control group (in words) ([3]; 30 mg/kg): higher rates of inhibiting reactive oxygen than that of the drug control group treated with ROF
COc1ccc([C@H]2OC[C@H]3[C@@H]2CO[C@@H]3c2ccc(OC)c(OC)c2)cc1OC [Compound S1, dimethylpinoresinol]	8.64%	26.36%	30.2%	12.8 ± 10.4%	45.9 ± 3.4%	42.2 ± 2.5%	40.0 ± 5.4%	54.5 ± 3.4%	54.3 ± 3.5%	effectively inhibited		17.9 ± 5.1%	34.7 ± 3.2%	relatively higher inhibition rates in a manner depending on concentration	56.2 ± 6.6%	67.6 ± 6.6%	25.0 ± 7.8%	38.0 ± 4.1%	concentration-dependent decrease	concentration-dependent inhibition	Viability of H292 cells (%, average ± deviation) ([6]; 2.5 μM): 121.27 ± 2.04%; Viability of H292 cells (%, average ± deviation) ([6]; 5 μM): 121.61 ± 3.75%; Viability of H292 cells (%, average ± deviation) ([6]; 10 μM): 118.76 ± 1.96%; production of MUC5AC (in words) [1]: inhibited in a manner depending on the concentrations; production of MUC5AC (in words) ([1]; listed as Formula 2): inhibited the production of MUC5AC in a manner depending on concentration; Inhibition rate (%) [7]: 55.74%
COc1ccc([C@H]2OC[C@H]3[C@@H]2CO[C@@H]3c2ccc3c(c2)OCO3)cc1OC [Compound S5, dimethoxyaschantin]	13.93%	10.12%	16.43%	28.3 ± 7.2%	44.2 ± 4.1%	33.0 ± 4.4%	37.1 ± 7.1%	53.2 ± 5.4%	43.2 ± 5.4%			31.3 ± 2.5%	39.7 ± 3.5%	relatively higher inhibition rates in a manner depending on concentration	36.1 ± 5.5%	48.8 ± 4.4%	32.9 ± 4.8%	39.1 ± 1.9%	concentration-dependent decrease	concentration-dependent inhibition	
COc1cc([C@H]2OC[C@H]3[C@@H]2CO[C@@H]3c2ccc3c(c2)OCO3)cc(OC)c1OC [Compound S6, aschantin]	0.15%	4.19%	1.2%	37.8 ± 5.3%	50.7 ± 5.9%	42.8 ± 2.4%	26.0 ± 5.6%	66.3 ± 5.9%	43.7 ± 4.7%	effectively inhibited	higher rates of inhibiting reactive oxygen than that of the drug control group treated with ROF	30.6 ± 7.6%	33.5 ± 6.9%	relatively higher inhibition rates in a manner depending on concentration	59.3 ± 7.2%	62.9 ± 6.0%	39.8 ± 10.2%	47.8 ± 4.7%	concentration-dependent decrease	concentration-dependent inhibition	rate of inhibiting reactive oxygen compared with ROF drug control group (in words) ([3]; 30 mg/kg): higher rates of inhibiting reactive oxygen than that of the drug control group treated with ROF
